Assay results reported in patent publication US10517870B2, “Aryl substituted bicycle heteroaryl compounds” (Bristol-Myers Squibb Company, priority 2015, dated 2019).
Read-outs that look alike come from different tables or passages of the source.

Experiments:
Saos-2 (HPV−) cells = experiment: Cell proliferation/viability assay, Saos-2 cells; format: cell-based; settings: Homo sapiens
Description: (§1) Caski (catalog number CRL-1550), SiHa (catalog number HTB-35), C33A (catalog number HTB-31), Saos-2 (ATCC HTB-85), and Hela (catalog number CCL-2) cells were obtained from the American Type Culture Collection (ATCC). The human cervical carcinoma cell lines Caski. SiHa, Hela and C33A, and the human osteosarcoma cell line Saos-2, and the human keratinocyte cell line HaCaT were cultured in Dulbecco's Modified Eagle Medium (DMEM, Invitrogen catalog number 11965-092) supplemented with 10% fetal bovine serum. The colorectal carcinoma cell line HCT-116 was cultured in Roswell Park Memorial Institute-1640 Medium (Invitrogen catalog number 11875-093) supplemented with 10% FBS. All cells were incubated at 37° C. in a humidified atmosphere with 5% CO2 in air. To establish the SCHPV-18 cell line, one million primary neonatal human foreskin keratinocytes (Invitrogen, catalog no. C-001-5C), cultured in KBM Gold-keratinocvte cell basal medium (Lonza, catalog no. 192060), were electroporated with 5 μg HPV-18 plasmid DNA (ATCC catalog no. 45152D) using the Amaxa Nucleofector II on setting T-007. Cells were co-transfected with 2 μg plasmid pZSGreen1-N1 (Clontech catalog no. 632448) encoding G418 resistance, and cells were selected for four days in 100 μg/ml G418, after which selection was removed. Cells were maintained in culture six months prior to compound testing. Integration of the HPV 18 genome was confirmed by Southern blot. Control cells transfected in parallel with pZSGreen1-N1 alone became senescent four days after selection and the culture could not be expanded. SCHPV-18 cells were maintained in E medium (Fehrmann F, Laimins L A. Human papillomavirus type 31 life cycle: methods for study using tissue culture models. Methods Mol Biol 2005; 292:317-330).
(§2) For proliferation assays, cells were plated in white polystyrene 96-well plates (Costar catalog number 3917) for CellTiter Glo viability assays or 96-well special optics plates (Costar cat #3614) for CellTiter Blue viability assays. Cells were plated in the appropriate growth medium without antibiotics. Two hours after cell plating, a 200× compound stock diluted in DMSO was added to a final concentration of 0.5%. Plates were incubated at 37° C., for 4 days and then cell viability was assessed using either CellTiter Blue (Promega catalog number G8081) or CellTiter Glo (Promega catalog number G7572) according to the manufacturer's instructions. For the CellTiter Blue viability assay, data was collected using the SpectraMax Gemini EM (Molecular Devices) with an excitation wavelength of 530 nm and emission wavelength of 590 nm. For the CellTiter Glo viability assay, data was collected using the Envision Mulitlabel Reader (Perkin Elmer catalog number 2104-0010). To calculate IC50 and EC50 values, percent inhibition curves were fit using a four-parameter logistic formula [y=A+[…]], where A and B denote minimal and maximal % inhibition, respectively, C is the IC50 value, D is the Hill slope, and x represents compound concentration.
(§3) Table C, below, sets out the results obtained employing various compounds of the invention tested for their effects on proliferation of such cells. Caski or SiHa cells, transformed by HPV 16, Hela cells, transformed by HPV 18, or HPV-negative control cell lines (Saos-2 or C33a) were treated with various compounds. […] Unlike the HPV-negative Saos-2 or C33a cell lines, the HPV-transformed cell lines rely on the presence of HPV for their continued proliferation. Therefore, a comparison of IC50 values from HPV-transformed cell lines with IC50 values obtained from HPV-negative cell lines can be used to test for compound selectivity.

HeLa (HPV18+) cells = experiment: Cell proliferation/viability assay, HeLa cells; format: cell-based; settings: Homo sapiens, 96 h, 4 days
Description: as §1, §2, §3

PAR4 = biological target: T1, PAR4 (Homo sapiens, UniProt Q96RI0); experiment: PAR4 FLIPR assay (calcium mobilization, antagonist activity) in PAR4-expressing HEK293 cells; format: cell-based
T1 construct: expressed in transfected cells; host or cells: HEK293 PAR4 Clone 1.2A
T1 sequence (Q96RI0 18-385): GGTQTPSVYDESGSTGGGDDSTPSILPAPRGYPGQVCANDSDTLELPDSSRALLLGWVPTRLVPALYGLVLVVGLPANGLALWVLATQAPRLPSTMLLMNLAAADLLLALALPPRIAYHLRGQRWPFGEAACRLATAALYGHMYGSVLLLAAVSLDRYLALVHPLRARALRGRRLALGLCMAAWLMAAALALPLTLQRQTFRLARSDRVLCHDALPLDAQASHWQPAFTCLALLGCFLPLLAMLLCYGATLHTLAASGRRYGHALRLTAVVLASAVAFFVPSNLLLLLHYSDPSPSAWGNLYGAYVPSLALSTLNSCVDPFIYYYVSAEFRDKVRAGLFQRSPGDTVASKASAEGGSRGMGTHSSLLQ
Source text: The FLIPR assay is an exemplary in vitro assay for measuring the activity of the PAR4 antagonists of the present invention. In this assay, intracellular calcium mobilization is induced in PAR4 expressing cells by a PAR4 agonist and calcium mobilization is monitored.
HEK293 cells stably expressing PAR4 were generated by a standard method of transfection of human PAR4 (F2R23) cDNA expression vector and selected based on PAR4 protein expression or mRNA expression. […] These cells also express endogenous PAR1 and can elicit calcium signal upon stimulation with PAR1 agonist peptide. Therefore, the same cells were also used to determine selectivity against PAR1 and agonist activity for both receptors. Cells from HEK293 PAR4 Clone 1.2A (BMS Arctic ID 383940) were propagated and used for calcium mobilization studies.
FLIPR-based calcium mobilization assay in HEK293 cells was used to measure PAR4 antagonism, agonism, and selectivity against PAR1. The activity of the PAR4 antagonists of the present invention were tested in PAR4 expressing cells by monitoring H-Ala-Phe(4-F)-[…]NH2-induced intracellular calcium mobilization. Counter screens for agonist activity and PAR1 antagonist activity were also performed. Briefly, PAR1/PAR4-expressing HEK293 cells were grown in DMEM (Life Technology, Grand Island, N.Y.) containing 10% heat-inactivated FBS, 1% Penicillin-Streptomycin, 10 μg/mL blasticidin, and 100 μg/mL Zeocin at 37° C. with 5% CO2. Cells were plated overnight prior to the experiment in a black 384-well Purecoat Amine clear bottom plate (Becton Dickinson Biosciences, San Jose, Calif.) at 10,000 cells/well in 30 μL growth medium and incubated in a humidified chamber at 37° C. with 5% CO2 overnight. Prior to compound addition, the cell medium was replaced with 40 μL of IX calcium and magnesium-containing Hank's Balanced Saline Solution (HBSS) (with 20 mM HEPES) and 1:1000 diluted fluorescent calcium indicator (Codex Biosolutions, Gaithersburg, Md.). After a 30 minute incubation period at 37° C., and a further 30 minute incubation and equilibration period at room temperature, 20 μL test compound (diluted in 1×HBSS buffer) was added at various concentrations at 0.17% dimethyl sulfoxide (DMSO) final concentration. Changes in fluorescence intensity were measured using a Functional Drug Screening System (FDSS, Hamamatsu, Japan) to determine agonist activities. The cells were then incubated for 30 minutes at room temperature followed by addition of 20 μL of agonist peptide for antagonist activity measurement. […] Compound potency was derived from 11-point concentration-response curves.

Caski (HPV16+) cells = experiment: Cell proliferation/viability assay, Caski cells; format: cell-based; settings: Homo sapiens, Ca-Ski, 96 h, 4 days
Description: as §1, §2, §3

SiHa (HPV16+) cells = experiment: Cell proliferation/viability assay, SiHa cells; format: cell-based; settings: Homo sapiens, 96 h, 4 days
Description: as §1, §2, §3

C33A (HPV−) cells = experiment: Cell proliferation/viability assay, C33A cells; format: cell-based; settings: Homo sapiens, C-33-A, 96 h
Description: as §1, §2, §3

Caspase-3/-7 activity = experiment: Apoptosis assay (Caspase-Glo 3/7) in HPV-transformed and HPV-negative cell lines; format: cell-based, human
Description: Apoptosis is a cellular process in which a cascade of events, controlled by proteolytic cleavage events, results in chromatin condensation, blebbing of the cell membrane, fragmentation of cellular DNA, and cell death. Caspases 3 and 7 are enzymes which control initiation of the later stages of apoptosis. Caspase-3/-7 activity can therefore be used as a measure of induction of apoptosis in response to compound treatment. For caspase-3/7 activity assays, cells were plated in 96-well plates (Costar catalog no. 3917) in DMEM with 10% FBS two hours before compound treatment. Cells were treated with compounds in a final concentration of 0.5% DMSO, then the Caspase-Glo 3/7 Assay (Promega catalog no. G8090) was performed according to manufacturer's instructions. […] Luminescence was measured using the EnVision Multilabel Reader (Perkin Elmer catalog no. 2104-0010) with aperture diameter 6 mm, height 4.2 mm, and measurement time of 0.1 second per well.
Example 15 was tested in an apoptosis assay using three HPV-transformed cell lines (Caski, SiHa, and SCHPV-18) and four HPV-negative cell lines (HCT-116, HaCat, C33a, and Saos-2). The cell lines were treated with a range of concentrations of the compound and induction of Caspase-3/-7 activity was measured relative to vehicle (DMSO)-treated controls.

[1] = SAOS-2, 96 h, read-out: Saos-2 (HPV−) Proliferation IC50 (μM)
[2] = read-out: C33A (HPV−) Proliferation IC50 (μM)

SMILES | IC50 (Saos-2 (HPV−) cells; [1]) [µM] | IC50 (HeLa (HPV18+) cells) [µM] | IC50 (PAR4) [µM] | IC50 (Caski (HPV16+) cells) [µM] | IC50 (SiHa (HPV16+) cells) [µM] | IC50 (C33A (HPV−) cells; [2]) [µM] | increase in Caspase-3/-7 activity (Caspase-3/-7 activity; HPV-positive cell lines (Caski, SiHa, SCHPV-18), relative to vehicle (DMSO)-treated controls) | induction of apoptosis (Caspase-3/-7 activity; HPV-positive versus HPV-negative cell lines (HCT-116, HaCat, C33a, Saos-2)) | IC50 (Saos-2 (HPV−) cells; 96 h, Saos-2, HPV-negative, 4 days, read-out: Saos-2 (HPV−) Proliferation IC50) [µM] | IC50 (C33A (HPV−) cells; C33A, HPV-negative, 4 days, read-out: C33A (HPV−) Proliferation IC50) [µM]
C#Cc1cc(-c2ccc(OC)cc2)c2ncc(OC(F)F)nc2c1 [Example 5, 2-(difluoromethoxy)-7-ethynyl-5-(4-methoxyphenyl)quinoxaline] | 53.1 | 3.3 | 0.25 | 3.4 | 4.5 | 42.3 | – | – | – | –
COc1ccc(-c2cc(C(F)(F)F)cc3nc(OC(F)F)cnc23)cc1 [Example 8, 2-(difluoromethoxy)-5-(4-methoxyphenyl)-7-(trifluoromethyl)quinoxaline] | 58.3 | 2.3 | 1.5 | 2.5 | 4.3 | > 99.5 | – | – | – | –
COc1ccc(-c2cc(C(F)(F)F)cc3nc(OC(F)F)cnc23)cc1Br [Example 15, 5-(3-bromo-4-methoxyphenyl)-2-(difluoromethoxy)-7-(trifluoromethyl)quinoxaline] | – | 18.2 | – | 16.5 | 12.9 | – | greater than 10 fold | selectively induced apoptosis in HPV-positive cell lines | > 99.5 | > 99.5
Cc1cc(-c2cccc(Cl)c2)c2ncc(OC(F)F)nc2c1 [Example 18, 5-(3-chlorophenyl)-2-(difluoromethoxy)-7-methylquinoxaline] | > 100 | 13.2 | 1.4 | 13.9 | 11.6 | > 100 | – | – | – | –
Cc1cc(-c2ccc(C(F)(F)F)cc2)c2ncc(OC(F)F)nc2c1 [Example 19] | > 100 | 29.9 | 0.8 | 14.6 | 20.5 | > 100 | – | – | – | –
Cc1cc(-c2ccc(OC(F)(F)F)cc2)c2ncc(OC(F)F)nc2c1 [Example 20, 2-(difluoromethoxy)-7-methyl-5-(4-(trifluoromethoxy)phenyl)quinoxaline] | > 100 | 45.1 | 1.2 | 16.4 | 22.1 | 83.5 | – | – | – | –
COc1cc(F)cc(-c2cc(C)cc3nc(OC(F)F)cnc23)c1 [Example 21, 2-(difluoromethoxy)-5-(3-fluoro-5-methoxyphenyl)-7-methylquinoxaline] | > 100 | 14.7 | 2.2 | 13.3 | 11.7 | > 100 | – | – | – | –
Cc1cc(-c2ccc(F)c(F)c2)c2ncc(OC(F)F)nc2c1 [Example 22, 2-(difluoromethoxy)-5-(3,4-difluorophenyl)-7-methylquinoxaline] | 70.6 | 16.9 | 1 | 15.9 | 12.6 | 94.4 | – | – | – | –
Cc1cc(-c2ccc(Cl)cc2Cl)c2ncc(OC(F)F)nc2c1 [Example 23, 5-(2,4-dichlorophenyl)-2-(difluoromethoxy)-7-methylquinoxaline] | > 100 | 10.9 | 0.012 | 12.9 | 9.3 | 79.7 | – | – | – | –
Cc1cc(-c2ccc(Cl)c(Cl)c2)c2ncc(OC(F)F)nc2c1 [Example 24, 5-(3,4-dichlorophenyl)-2-(difluoromethoxy)-7-methylquinoxaline] | > 100 | 12.7 | 3.3 | 12.8 | 8.9 | 89.4 | – | – | – | –
Cc1cc(-c2cccc(OC(F)(F)F)c2)c2ncc(OC(F)F)nc2c1 [Example 26, 2-(difluoromethoxy)-7-methyl-5-(3-(trifluoromethoxy)phenyl) quinoxaline] | > 100 | 4.6 | 0.4 | 6 | 3.8 | > 100 | – | – | – | –
